Measurements: patent US20250345356A1, “TIRAPAZAMINE COMPOSITIONS AND METHODS” (priority 2024, published 2025)
Where two headings read alike, the source gives them in different places.

Columns and labels:
HCC = settings: cited from earlier work
[1] = mice, intravenous administration; cited from earlier work
[2] = Activation energy of degradation from stability studies; format: physicochemical; settings: formulation without HP-beta-CD, long-term stability results
Experimental: Activation energy (Ea) is the least possible energy required to start a chemical reaction. Molecules need some kinetic energy or velocity to collide with other molecules to start a reaction. No reaction will take place if the collision doesn't happen, or if the molecules don't have enough kinetic energy. The energy needed to initiate the reaction is known as Activation energy.
The activation energy (Ea) of a reaction is measured in joules (J), kilojoules per mole (kJ/mol) or kilocalories per mole (kcal/mol)
The Activation Energy Formula is as follows: […]
Where A is a constant, k is the rate constant, Ea is the activation energy of degradation in kcal/mol, R is the universal gast constant (1.98 calKmole) and I is the absolute temperature (° K).
In the formulation without HP-beta-CD, Ea of TPZ is calculated as 35 kcal/mole based on the long-term stability results. For the HP-beta-CD new formulation, Ea of the complex is calculated at 44 kcal/mole using a new formulation methodology called “Accelerated Stability Assessment Program (ASAP)” that can be executed in a few weeks with a few storage conditions and temperature ranging from 40° C. to 70° C. inclusive. The higher the activation energy, the more kinetically stable the complex is.

[3] = test system: unresectable intermediate stage HCC; settings: cited from earlier work
[4] = PK of TPZ and metabolites SR4317 and SR4330 after intra-arterial injection of TPZ in NS vs HPβCD; format: in vivo, Sprague Dawley rats; settings: for AUClast, HβC Mean / Cmax, HβC Mean / AUClast, Normal Saline (NS) Mean / Cmax, Normal Saline (NS) Mean: rats
Text: Purpose of the study: To evaluate the pharmacokinetics (PK) of tirapazamine and its metabolites, SR4317 and SR4330 [Graham, M A et al. Cancer Chemother. Pharmacol. (1997) 40 (1): 1-10], after injection of TPZ in 1% HPβCD or normal saline.
Animals: Twenty-four female (12) and male (12) Sprague Daley (SD) rats, weight 200-250 grams, respectively, with femoral artery and jugular vein cannulated, were purchased from, Taconic. Two extra cannulated male and female rates were used to test tolerability with buffer. Each rate was housed individually to safeguard the vessel catheters.
The study parameters are shown in Table 22. began after a 3-day period of adjustment to the animal facility. The study compound was injected into the femoral artery catheter (FAC at 2-1 m (by slow injection. Blood samples were collected from a jugular vein catheter (JVC) at 6 timepoints: 0 (baseline) and after drug administration at 15 and 30 minutes, 1 hr, 2 hr, and 6 hours. The volume of blood sample for each time point was approximately 0.6 mL. Plasma samples were collected in tubes containing sodium heparin as anti-coagulant. Plasma was prepared and frozen in −80° C. Rats were euthanized after the last blood sample (euthanized after the 6 hr time point).
Male rats were around 250 grams, and female 200 grams. There were 8 groups with Groups 1-4 females, and […]. Each group had 3 rats. TPZ was dissolved in NS or […] at a concentration 0.7 mg/mL.
The concentrations of TPZ and its metabolites, SR4317 and SR4330, in rat plasma samples were analyzed using liquid chromatography Tandem Mass Spectrometry (LC-MS) by Primera Analytical Solutions Corp (Princeton, NJ). Standards for TPZ, SR4317 and SR4330 were provided by Teclison, Inc. (Princeton, NJ) for calibration. All analytical data were reviewed for completeness and accuracy. Data transferred manually was cross-checked against source data which was part of the study raw data.
LC-MS analysis was conducted with Sciex 4000 with a Shimadzu LC-30 System.
The concentration data was imported and plotted with SAS program as ADPC (Analysis Dataset of Pharmacokinetics Concentrations) dataset. PK parameters calculated based on ADPC were output as an Analysis Dataset of Pharmacokinetics Parameters (ADPP) dataset.
PK parameters of each profile were calculated by non-compartmental analysis using SAS programming. BLQ (Below the Limit of Quantification) observation prior to the first measurable concentration was imputed as zero, otherwise, the BLQ observation was left as missing.
An apparent first-order terminal elimination rate constant (Kel) was calculated by linear least-squares regression analysis using at least three points (excluding Cmax) in the terminal log-linear phase. Uniform weighting was adopted when performing regression analysis. Linear-up/log-down approach was utilized to calculate AUC.
A linear model was built to evaluate the effect of solution on the PK parameters, adjusting for sex and dose. The model included sex (F, M), solution type (Normal saline, Hydroxypropyl-beta-Cyclodextrin “HP-beta-CD”), and dose (mg) as fixed effects. Sex and solution type are categorical variables (meaning a variable based on a qualitative, not numerical, property) and dose is a continuous variable (meaning a random variable that can take on an infinite number of values within a certain interval that represents measurable data). Separate models were built for each combination of analyte (TPZ, SR4317 and SR4330) and PK parameters (AUClast and Cmax) using the BY statement, which divides the observations from an input data set into groups for processing.
The difference of lease squared means between solution types was estimated. 95% confidence intervals (CI), and p-values for the difference were presented. The significance level (alpha) was set at 0.05, meaning that a p-value less than 0.05 was considered statistically significant.

advanced NSCLC = settings: cited from earlier work
[5] = intra-arterial TPZ 3.33 mg/kg in HPβCD
[6] = intra-arterial TPZ 3.33 mg/kg in NS
[7] = intra-arterial TPZ 7 mg/kg in HPβCD
[8] = intra-arterial TPZ 7 mg/kg in NS

Nc1n[n+]([O-])c2ccccc2[n+]1[O-] [tirapazamine, 3-amino-1,2,4-benotriazine-1,4-di-N-oxide]
CR or partial response (PR), objective response rate (ORR) (HCC; 17 patients): 64.7% | patients who achieved CR as the best target tumor lesion response (HCC; 17 patients): 47.1% | median Time to Progression (HCC; mRECIST criteria): not reached | LD10 [1]: 294 mg/kg | LD50 [1]: 303 mg/kg | activation energy of degradation (Ea) [2]: 35 kcal/mol | median duration of target lesion response ([3]; 15 patients who achieved CR by mRECIST): not reached | median duration of target lesion response ([3]; 21 patients who achieved CR or PR): not reached | treatment emergent AE grade 3 or higher: ALT increased ([3]; 27 patients): 11.1% | treatment emergent AE grade 3 or higher: AST increased ([3]; 27 patients): 14.8% | treatment emergent AE grade 3 or higher: hypertension ([3]; 27 patients): 25.9% | treatment-related AE: ALT increased ([3]; 27 patients): 7.4% | treatment-related AE: AST increased ([3]; 27 patients): 7.4% | treatment-related AE: bradycardia ([3]; 27 patients): 7.4% | treatment-related AE: fatigue ([3]; 27 patients): 7.4% | treatment-related AE: hypertension ([3]; 27 patients): 11.1% | CR rate by lesions ([3]; 46 target lesions): 65.2% | ORR (CR+PR) by lesions ([3]; 46 target lesions): 78.3% | local recurrence in the embolized territory ([3]; CR patients): 13.3% | local recurrence in the embolized territory ([3]; CR+PR patients): 28.6% | dose-limiting toxicity (DLT) ([3]; all cohorts, with TAE): no dose-limiting toxicity | patients who achieved CR in target lesions ([3]; mRECIST, 25 evaluable patients): 60.0% | patients who achieved CR+PR ([3]; mRECIST, 25 evaluable patients): 84.0% | Complete Response (CR) rate ([3]; two phase I studies, tirapazamine with TAE): 50-60% | MTD of tirapazamine in combination with TAE ([3]; up to 20 mg/m^2 I.A.): not established | AUClast HβC/NS Ratio (%) ([4]; 3.33 mg/kg): 86.94% | Cmax HβC/NS Ratio (%) ([4]; 3.33 mg/kg): 91.15% | dose proportionality of plasma concentrations ([4]; 3.33 mg/kg vs. 7 mg/kg in either solvent): dose proportional effect was observed | AUClast HβC/NS Ratio (%) ([4]; 7 mg/kg): 94.02% | Cmax HβC/NS Ratio (%) ([4]; 7 mg/kg): 101.02% | plasma concentrations, TPZ in NS versus HPβCD ([4]; FIG. 23): no difference | AUClast, HβC Mean [4, 5]: 781.49 ng·h/mL | Cmax, HβC Mean [4, 5]: 1476.67 ng/mL | AUClast, Normal Saline (NS) Mean [4, 6]: 898.92 ng·h/mL | Cmax, Normal Saline (NS) Mean [4, 6]: 1620.00 ng/mL | AUClast, HβC Mean [4, 7]: 2423.84 ng·h/mL | Cmax, HβC Mean [4, 7]: 4468.33 ng/mL | AUClast, Normal Saline (NS) Mean [4, 8]: 2578.02 ng·h/mL | Cmax, Normal Saline (NS) Mean [4, 8]: 4423.33 ng/mL | removed from treatment as a result of toxicity (advanced NSCLC; arm 1 (with tirapazamine 260-330 mg/m^2) vs arm 2): 26% | patients who developed ≥grade 3 febrile neutropenia (advanced NSCLC; arm 1 vs arm 2): Twenty | survival compared with paclitaxel and carboplatin alone (advanced NSCLC; tirapazamine added to paclitaxel and carboplatin): does not result in improved survival
